Measurements from the supplement of paper PMC4862054.

Experiments:
Conditions in all cases: incubation time: 72 h
BT-474 [1] = assay: normalised response (% of control), CellTiter-Glo; higher = more viable cells (100 = DMSO, 0 = benzethonium chloride kill control)
Outline: (§1)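 The table gives the normalised signal for a single concentration in each entry. Breast cancer cell lines were seeded (20 µl suspension) into 384-well plates holding compound at 5 concentrations in 10-fold steps over a compound-specific 10,000-fold range and incubated 72 h, then read for CellTox Green fluorescence (485/520 nm) and CellTiter-Glo luminescence. Normalisation on each plate used 0.1 % DMSO (100) and a positive kill control (0).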

BT-549 [2] = assay: as above
Outline: as §1

CAL-120 [3] = assay: as above
Outline: as §1

CAL-148 [4] = assay: as above
Outline: as §1

CAL-51 [5] = assay: as above
Outline: as §1

CAL-85-1 [6] = assay: as above
Outline: as §1

DU-4475 [7] = assay: as above
Outline: as §1

HCC1143 [8] = assay: as above
Outline: as §1

HCC1599 [9] = assay: as above
Outline: as §1

HCC1937 [10] = assay: as above
Outline: as §1

HDQ-P1 [11] = assay: as above
Outline: as §1

Hs578T [12] = assay: as above
Outline: as §1

MCF-10A = assay: as above
Outline: as §1

MDA-MB-231 [13] = assay: as above
Outline: as §1

MDA-MB-436 [14] = assay: as above
Outline: as §1

MDA-MB-453 [15] = assay: as above
Outline: as §1

MDA-MB-468 [16] = assay: as above
Outline: as §1

MFM-223 [17] = assay: as above
Outline: as §1

SK-BR-3 [18] = assay: as above
Outline: as §1

BT-474 [19] = assay: normalised viability (% of control), CellTiter-Blue; higher = more viable cells (100 = DMSO, 0 = benzethonium chloride kill control)
Outline: (§2)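 The reported quantity is normalised viability at a single listed concentration of the series. Compound in 5 µl medium was pre-dispensed into 384-well plates and 20 µl of breast cancer cell suspension was added for 72 h. A 2 h, 37 °C CellTiter-Blue step (2.5 µl) preceded fluorescence reading at 560/590 nm, and plates were normalised to vehicle (100) and a positive kill control (0).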

BT-549 [20] = assay: as above
Outline: as §2

CAL-120 [21] = assay: as above
Outline: as §2

CAL-148 [22] = assay: as above
Outline: as §2

CAL-51 [23] = assay: as above
Outline: as §2

CAL-85-1 [24] = assay: as above
Outline: as §2

DU-4475 [25] = assay: as above
Outline: as §2

HCC1143 [26] = assay: as above
Outline: as §2

HCC1599 [27] = assay: as above
Outline: as §2

HCC1937 [28] = assay: as above
Outline: as §2

HDQ-P1 [29] = assay: as above
Outline: as §2

Hs578T [30] = assay: as above
Outline: as §2

MDA-MB-231 [31] = assay: as above
Outline: as §2

MDA-MB-436 [32] = assay: as above
Outline: as §2

MDA-MB-453 [33] = assay: as above
Outline: as §2

MDA-MB-468 [34] = assay: as above
Outline: as §2

MFM-223 [35] = assay: as above
Outline: as §2

SK-BR-3 [36] = assay: as above
Outline: as §2

Structure (SMILES) | normalised response (BT-474 [1]) [%] | normalised response (BT-549 [2]) [%] | normalised response (CAL-120 [3]) [%] | normalised response (CAL-148 [4]) [%] | normalised response (CAL-51 [5]) [%] | normalised response (CAL-85-1 [6]) [%] | normalised response (DU-4475 [7]) [%] | normalised response (HCC1143 [8]) [%] | normalised response (HCC1599 [9]) [%] | normalised response (HCC1937 [10]) [%] | normalised response (HDQ-P1 [11]) [%] | normalised response (Hs578T [12]) [%] | normalised response (MCF-10A) [%] | normalised response (MDA-MB-231 [13]) [%] | normalised response (MDA-MB-436 [14]) [%] | normalised response (MDA-MB-453 [15]) [%] | normalised response (MDA-MB-468 [16]) [%] | normalised response (MFM-223 [17]) [%] | normalised response (SK-BR-3 [18]) [%] | normalised viability (BT-474 [19]) [%] | normalised viability (BT-549 [20]) [%] | normalised viability (CAL-120 [21]) [%] | normalised viability (CAL-148 [22]) [%] | normalised viability (CAL-51 [23]) [%] | normalised viability (CAL-85-1 [24]) [%] | normalised viability (DU-4475 [25]) [%] | normalised viability (HCC1143 [26]) [%] | normalised viability (HCC1599 [27]) [%] | normalised viability (HCC1937 [28]) [%] | normalised viability (HDQ-P1 [29]) [%] | normalised viability (Hs578T [30]) [%] | normalised viability (MDA-MB-231 [31]) [%] | normalised viability (MDA-MB-436 [32]) [%] | normalised viability (MDA-MB-453 [33]) [%] | normalised viability (MDA-MB-468 [34]) [%] | normalised viability (MFM-223 [35]) [%] | normalised viability (SK-BR-3 [36]) [%]
COc1cccc2c1C(=O)c1c(O)c3c(c(O)c1C2=O)C[C@@](O)(C(C)=O)C[C@@H]3O[C@H]1C[C@H](N)[C@H](O)[C@H](C)O1 [Daunorubicin] (0.1 nM) | 108 | 106 | 99 | 112 | 108 | 102 | 100 | 103 | 104 | 95.6 | 104 | 107 | 112 | 105 | 129 | 112 | 102 | 108 | 101 | 101 | 100 | 87.8 | 106 | 99.2 | 88.7 | 88.2 | 102 | 101 | 115 | 98.8 | 130 | 103 | 99.1 | 107 | 100 | 97.3 | 85.2
CN1CCN(c2ccc3nc(-c4c(N)c5c(F)cccc5[nH]c4=O)[nH]c3c2)CC1 [Dovitinib] (1 nM) | 99.9 | 102 | 94.9 | 98.2 | 106 | 100 | 96.2 | 98.3 | 105 | 96.3 | 96 | 103 | 89.3 | 102 | 99.5 | 102 | 99.6 | 95.4 | 94.1 | 110 | 96.2 | 78.8 | 104 | 114 | 82 | 113 | 87.3 | 92.6 | 92.2 | 87.4 | 96.5 | 84.5 | 105 | 98.3 | 89.2 | 80.6 | 77.6
O=c1[nH]c(=O)n([C@H]2C[C@H](O)[C@@H](CO)O2)cc1F [Floxuridine] (1 nM) | 104 | 102 | 101 | 97.7 | 120 | 95.9 | 103 | 97.6 | 96.9 | 99.1 | 102 | 103 | 115 | 107 | 132 | 104 | 105 | 110 | 107 | 91.2 | 123 | 100 | 102 | 98.2 | 94.1 | 104 | 98.6 | 95.7 | 89.2 | 108 | 130 | 99 | 112 | 108 | 99.9 | 103 | 97.2
O=c1[nH]cc(F)c(=O)[nH]1 [Fluorouracil] (1 nM) | 99.5 | 107 | 108 | 105 | 124 | 105 | 100 | 102 | 95.8 | 95.1 | 105 | 106 | 113 | 106 | 119 | 110 | 97.2 | 110 | 108 | 107 | 114 | 103 | 109 | 100 | 106 | 107 | 102 | 80.1 | 90.6 | 110 | 122 | 112 | 94.8 | 115 | 113 | 106 | 103
